# Several values for one entry are separate records, joined by “and”; a condition that tells them apart may be missing. Identical values can stand only once. Like-named read-outs stand apart in the source and are kept apart here.
# Columns and labels:
# PLpro from MERS = details: cited from earlier work
# SARS-CoV = details: cited from earlier work
# Vero E6 cells = details: cited from earlier work
# SARS-CoV-2 = assay: microbe, parasite or virus in culture; assay type: cell-based, SARS-CoV-2 (nCoV/Washington/1/2020) in Vero E6 cells; details: for EC50: Severe acute respiratory syndrome coronavirus 2, Vero C1008, 24 h; for Percent Spike Positive Cells: relative to DMSO treated cells, single replicates
# SARS-CoV-2 PLpro = SARS-CoV-2 PLpro (Severe acute respiratory syndrome coronavirus 2, UniProt P0DTD1); assay: biochemical
smiles,measurement,setting,value
"Cc1ccc(N)cc1C(=O)N[C@H](C)c1cccc2ccccc12 [Compound 1, 5-amino-2-methyl-N-[(1R)-1-naphthalen-1-ylethyl]benzamide]",inhibition of MERS PLpro,PLpro from MERS,not inhibited
same,potency in SARS-CoV-infected Vero E6 cells,SARS-CoV,good potency
same,cytotoxicity,Vero E6 cells,low cytotoxicity
same,inhibition of virus replication,SARS-CoV-2,inhibiting virus replication
same,EC50,SARS-CoV-2,1.4 ± 0.65 µM
"CCCCNC(=O)Nc1ccc(C)c(C(=O)N[C@H](C)c2cccc3ccccc23)c1 [Compound 5, 5-(butylcarbamoylamino)-2-methyl-N-[(1R)-1-naphthalen-1-ylethyl]benzamide]",IC50,SARS-CoV-2 PLpro; IC50,16.8 µM and 32.8 µM
same,"PLpro assay signal (source data Figure 2, single replicates)","SARS-CoV-2 PLpro; Log(M) -3.30103, listed as 5 (Snyder539)",225 and 216 and 235
same,"PLpro assay signal (source data Figure 2, single replicates)","SARS-CoV-2 PLpro; Log(M) -3.60206, listed as 5 (Snyder539)",256 and 292 and 307
same,"PLpro assay signal (source data Figure 2, single replicates)","SARS-CoV-2 PLpro; Log(M) -4, listed as 5 (Snyder539)",289 and 427 and 447
same,"PLpro assay signal (source data Figure 2, single replicates)","SARS-CoV-2 PLpro; Log(M) -4.30103, listed as 5 (Snyder539)",464 and 626 and 554
same,"PLpro assay signal (source data Figure 2, single replicates)","SARS-CoV-2 PLpro; Log(M) -4.69897, listed as 5 (Snyder539)",802 and 736 and 827
same,"PLpro assay signal (source data Figure 2, single replicates)","SARS-CoV-2 PLpro; Log(M) -5, listed as 5 (Snyder539)",945 and 917 and 894
same,"PLpro assay signal (source data Figure 2, single replicates)","SARS-CoV-2 PLpro; Log(M) -5.39794, listed as 5 (Snyder539)",1120 and 1187 and 1137
same,"PLpro assay signal (source data Figure 2, single replicates)","SARS-CoV-2 PLpro; Log(M) -5.69897, listed as 5 (Snyder539)",1190 and 1202 and 1324
same,"PLpro assay signal (source data Figure 2, single replicates)","SARS-CoV-2 PLpro; Log(M) -6.09691, listed as 5 (Snyder539)",1485 and 1470 and 1518
same,"PLpro assay signal (source data Figure 2, single replicates)","SARS-CoV-2 PLpro; Log(M) -6.39794, listed as 5 (Snyder539)",1389 and 1269 and 1337
same,EC50,SARS-CoV-2; read-out: EC50,2.5 µM
same,inhibition of virus replication,"SARS-CoV-2; Vero E6, SARS-CoV-2",inhibiting virus replication
same,Percent Spike Positive Cells,SARS-CoV-2; [Drug] 0.1 uM,115%
same,Percent Spike Positive Cells,SARS-CoV-2; [Drug] 1 uM,115%
same,Percent Spike Positive Cells,SARS-CoV-2; [Drug] 10 uM,69% and 115% and 92%
"Cc1ccc(NC(=O)Oc2ccc([N+](=O)[O-])cc2)cc1C(=O)N[C@H](C)c1cccc2ccccc12 [Compound 6, 5-(((4-nitrophenoxy)carbonyl)amino)-2-methyl-N-[(1R)-1-naphthalen-1-ylethyl]benzamide]","PLpro assay signal (source data Figure 2, single replicates)","SARS-CoV-2 PLpro; Log(M) -3.30103, listed as 6 (Snyder538)",62 and 61 and 69
same,"PLpro assay signal (source data Figure 2, single replicates)","SARS-CoV-2 PLpro; Log(M) -3.60206, listed as 6 (Snyder538)",86 and 78 and 83
same,"PLpro assay signal (source data Figure 2, single replicates)","SARS-CoV-2 PLpro; Log(M) -4, listed as 6 (Snyder538)",127 and 161 and 203
same,"PLpro assay signal (source data Figure 2, single replicates)","SARS-CoV-2 PLpro; Log(M) -4.30103, listed as 6 (Snyder538)",120 and 170 and 193
same,"PLpro assay signal (source data Figure 2, single replicates)","SARS-CoV-2 PLpro; Log(M) -4.69897, listed as 6 (Snyder538)",420 and 406 and 486
same,"PLpro assay signal (source data Figure 2, single replicates)","SARS-CoV-2 PLpro; Log(M) -5, listed as 6 (Snyder538)",662 and 534 and 618
same,"PLpro assay signal (source data Figure 2, single replicates)","SARS-CoV-2 PLpro; Log(M) -5.39794, listed as 6 (Snyder538)",926 and 988 and 896
same,"PLpro assay signal (source data Figure 2, single replicates)","SARS-CoV-2 PLpro; Log(M) -5.69897, listed as 6 (Snyder538)",1105 and 1269 and 1030
same,"PLpro assay signal (source data Figure 2, single replicates)","SARS-CoV-2 PLpro; Log(M) -6.09691, listed as 6 (Snyder538)",1318 and 1309 and 1349
same,"PLpro assay signal (source data Figure 2, single replicates)","SARS-CoV-2 PLpro; Log(M) -6.39794, listed as 6 (Snyder538)",1380 and 1317 and 1379
same,IC50,"SARS-CoV-2 PLpro; pH 7.3, read-out: IC50",7 ± 0.6 µM
same,inhibition of virus replication,"SARS-CoV-2; Vero E6, SARS-CoV-2",inhibiting virus replication
same,Percent Spike Positive Cells,SARS-CoV-2; [Drug] 0.1 uM,92% and 115% (2×)
same,Percent Spike Positive Cells,SARS-CoV-2; [Drug] 1 uM,115%
same,Percent Spike Positive Cells,SARS-CoV-2; [Drug] 10 uM,46% and 69%
"CCCCC(=O)Nc1ccc(C)c(C(=O)N[C@H](C)c2cccc3ccccc23)c1 [Compound 7, 5-pentanoylamino-2-methyl-N-[(1R)-1-naphthalen-1-ylethyl]benzamide]","PLpro assay signal (source data Figure 2, single replicates)","SARS-CoV-2 PLpro; Log(M) -3.30103, listed as 7 (Snyder514)",189 and 225 and 281
same,"PLpro assay signal (source data Figure 2, single replicates)","SARS-CoV-2 PLpro; Log(M) -3.60206, listed as 7 (Snyder514)",257 and 276 and 274
same,"PLpro assay signal (source data Figure 2, single replicates)","SARS-CoV-2 PLpro; Log(M) -4, listed as 7 (Snyder514)",332 and 331 and 303
same,"PLpro assay signal (source data Figure 2, single replicates)","SARS-CoV-2 PLpro; Log(M) -4.30103, listed as 7 (Snyder514)",346 and 354 and 361
same,"PLpro assay signal (source data Figure 2, single replicates)","SARS-CoV-2 PLpro; Log(M) -4.69897, listed as 7 (Snyder514)",672 and 717 and 815
same,"PLpro assay signal (source data Figure 2, single replicates)","SARS-CoV-2 PLpro; Log(M) -5, listed as 7 (Snyder514)",856 and 922 and 1036
same,"PLpro assay signal (source data Figure 2, single replicates)","SARS-CoV-2 PLpro; Log(M) -5.39794, listed as 7 (Snyder514)",1160 and 1233 and 1196
same,"PLpro assay signal (source data Figure 2, single replicates)","SARS-CoV-2 PLpro; Log(M) -5.69897, listed as 7 (Snyder514)",1260 and 1362 and 1272
same,"PLpro assay signal (source data Figure 2, single replicates)","SARS-CoV-2 PLpro; Log(M) -6.09691, listed as 7 (Snyder514)",1429 and 1375 and 1302
same,"PLpro assay signal (source data Figure 2, single replicates)","SARS-CoV-2 PLpro; Log(M) -6.39794, listed as 7 (Snyder514)",1493 and 1486 and 1598
same,IC50,"SARS-CoV-2 PLpro; pH 7.3, read-out: IC50",12.7 ± 1.3 µM
same,EC50,SARS-CoV-2; read-out: EC50,5.2 ± 4.2 µM
same,inhibition of virus replication,"SARS-CoV-2; Vero E6, SARS-CoV-2",inhibiting virus replication
same,Percent Spike Positive Cells,SARS-CoV-2; [Drug] 0.1 uM,115% (2×) and 92%
same,Percent Spike Positive Cells,SARS-CoV-2; [Drug] 1 uM,69% (2×) and 115%
same,Percent Spike Positive Cells,SARS-CoV-2; [Drug] 10 uM,46% and 23% and 35%
